Assay results taken from patent US8592594B2, “Tetrahydro-quinoline derivatives” (Hoffmann-La Roche Inc., priority 2010, dated 2013).

The compounds below were run on recombinant AMPK proteins (α1β1γ1, α2β1γ1, α1(1-335), α1(1-394) or α2(1-394)) (assay: Scintillation Proximity Assay (SPA), AMPK activation). Conditions: effective concentration of activator for 50% of maximal enzyme activity; 50 nM AMPK, 2 μM ATP, 2 μM biotin-SAMS, 30° C., 2 hours.
Assay type: biochemical, human
Experimental: Recombinant human AMPK α1β1γ1, α2β1γ1 or AMPK α subunit truncations α1(1-335), α1(1-394) and α2(1-394) were constructed, expressed and purified as described previously (Pang, T., Zhang, Z. S., Gu, M., Qiu, B. Y., Yu, L. F., Cao, P. R., Shao, W., Su, M. B., Li, J. Y., Nan, F. J., and Li, J. (2008). Rat liver AMPK heterotrimer enzyme was obtained from Upstate (Billerica, Mass., U.S.A.).
Scintillation Proximity Assay
Before the Scintillation Proximity Assay (SPA) assay, 200 nM recombinant AMPK proteins (α1β1γ1, α2β1γ1, α1(1-335), α1(1-394) or α2(1-394)) were fully phosphorylated as described previously (Pang et al., 2008). SPA reactions were performed in 96-well plates at a final volume of 50 μL containing 20 mM Tris-HCl pH 7.5, 5 mM MgCl2, 1 mM DTT, 2 μM biotin-SAMS, 2 μM ATP, 0.2 μCi/well [γ-^33P]ATP, and various amount of activator. Reactions were initiated by the addition of 50 nM recombinant AMPK proteins to the reaction solutions and incubated at 30° C. for 2 hours. After that, reactions were terminated by the addition of 40 μL stop solution containing 80 μg streptavidin-coated SPA beads per well, 50 mM ED TA, 0.1% Triton X-100 in PBS, pH 7.5 and incubated for 1 hour. Finally, a 160 μL suspension solution containing 2.4 M CsCl, 50 mM EDTA, and 0.1% Triton X-100 in PBS (pH 7.5) was added to the reaction solution to suspend SPA beads completely. SPA signals were determined with a Wallac MicroBeta plate counter (PerkinElmer) 30 min later for calculation of the amount of product formed. The amount of products formed in 2 hour was plotted against activator concentrations to determine the effective concentration of the activator (EC50) required for 50% of maximal enzyme activity.
Work on `CS(=O)(=O)c1ccc(F)cc1C1CC2(CC2)c2cc(C(=O)O)ccc2N1` (stereo not shown) [Example 11, 2-(5-Fluoro-2-methanesulfonyl-phenyl)-spiro(cyclopropane-1,4′-1′,2′,3′,4′-tetrahydroquinoline)-6-carboxylic acid] yielded an EC50 of 4.96 µM. For `CS(=O)(=O)c1cccc(C2CC3(CC3)c3cc(C(=O)O)ccc3N2)c1` (stereo not shown) [Example 6, 2-(3-Methanesulfonyl-phenyl)-spiro(cyclopropane-1,4′-1′,2′,3′,4′-tetrahydroquinoline)-6-carboxylic acid], the EC50 was 7.41 µM. `O=C(O)c1ccc2c(c1)C1(CC1)CC(c1cc(Cl)ccc1Cl)N2Cc1ccccc1` (stereo not shown) [Example 14, 1-Benzyl-2-(2,5-dichloro-phenyl)-spiro(cyclopropane-1,4′-1′,2′,3′,4′-tetrahydroquinoline)-6-carboxylic acid] gave an EC50 of 3.76 µM. `CN(C)C(=O)c1ccc2c(c1)C1(CCCC1)CC(c1cc(F)ccc1Br)N2` (stereo not shown) [Example 51, 2-(2-Bromo-5-fluoro-phenyl)-spiro(cyclopentane-1,4′-1′,2′,3′,4′-tetrahydroquinoline)-6-carboxylic acid dimethylamide] gave an EC50 of 3.58 µM. With `O=C(c1ccc2c(c1)C1(CCCC1)CC(c1cc(F)ccc1Br)N2)N1CCOCC1` (stereo not shown) [Example 57, [2-(2-Bromo-5-fluoro-phenyl)-spiro(cyclopentane-1,4′-1′,2′,3′,4′-tetrahydroquinolin)-6-yl]-morpholin-4-yl-methanone] the EC50 was 2.36 µM. For `CNC(=O)c1ccc2c(c1)C1(CC1)CC(c1cc(Cl)ccc1Cl)N2` (stereo not shown) [Example 38, 2-(2,5-Dichloro-phenyl)-spiro(cyclopropane-1,4′-1′,2′,3′,4′-tetrahydroquinoline)-6-carboxylic acid methylamide], the EC50 was 2.38 µM. With `CC1(C)CC(C(C)(C)c2ccccc2)Nc2ccc(C(=O)O)cc21` (stereo not shown) [Example 16, 4,4-Dimethyl-2-(1-methyl-1-phenyl-ethyl)-1,2,3,4-tetrahydro-quinoline-6-carboxylic acid] the EC50 was 8.61 µM. For `O=C(O)c1ccc2c(c1)C1(CC1)CC(c1cc(Cl)cc(Cl)c1)N2` (stereo not shown) [Example 4, 2-(3,5-Dichloro-phenyl)-spiro(cyclopropane-1,4′-1′,2′,3′,4′-tetrahydroquinoline)-6-carboxylic acid], the EC50 was 13.2 µM. With `O=C(NC1CCC1)c1ccc2c(c1)C1(CCCC1)CC(c1cccc(F)c1)N2` (stereo not shown) [Example 62, 2-(3-Fluoro-phenyl)-spiro(cyclopentane-1,4′-1′,2′,3′,4′-tetrahydroquinoline)-6-carboxylic acid cyclobutylamide] the EC50 was 1.59 µM. With `O=C(O)c1ccc2c(c1)C1(CCCCC1)CC(c1cc(F)ccc1Br)N2` (stereo not shown) [Example 9, 2-(2-Bromo-5-fluoro-phenyl)-spiro(cyclohexane-1,4′-1′,2′,3′,4′-tetrahydroquinoline)-6-carboxylic acid] the EC50 was 1.68 µM.
